“And” between values parts separate entries of the source, which are not always exact repeats. Equal entries are not always repeated.
Columns and labels:
[1] = GC-MS head space ratio of perfume raw materials with versus without polyamine polymer (R); type: physicochemical; conditions: for GC-MS head space peak area ratio normalized to Control: aqueous fabric refresher formulation pH 6.8, 0.05% Lupamin 1595, head space after 1 hr room temperature and 20 minutes at 40° C., Control without polyamine polymer = 1.000; for Obs. Lupamin Ratio: head space with polyamine polymer / head space nil polyamine polymer
Experimental: R=head space of aqueous composition containing polyamine/head space of aqueous composition nil polyamine polymer
Polyamine polymer perfume interactions were studied in aqueous fabric refresher formulations. Aqueous formulations containing a perfume mixture and a polyamine polymer was prepared according to Table 2 and studied against a control fabric refresher formulation without a polyamine polymer. Studies were conducted using 500 ppm (0.05%) polyamine polymer and perfume mixtures at 2 levels (500 ppm (0.05%) and 10,000 ppm […]).
GC-MS was used to study polymer perfume aldehyde interactions using the formulations prepared in Example 1. For the GC-MS analysis, 2 ml of each sample was transferred into 20 ml headspace vial, equilibrated at room temperature for 1 hr, and incubated at 40° C. for 20 minutes. Then, 1 ml of head space was injected into GC-MS using 1 to 10 split, and perfume raw material intensities were measured. Perfume raw material peak area ratios were then calculated using the control sample without a polyamine polymer.
PRMs that react with polyamine polymer have a headspace concentration less than 1.00 with respect to the normalized Control.

[2] = ambient temperature; cited from earlier work

With `C/C=C/C(=O)C1C(C)C=CCC1(C)C` (stereo not drawn) [Delta-damascone] as the molecule, how does the “GC-MS head space peak area ratio normalized to Control” value [1] read?
The value was 1.228.

For `O=CC1CCC2C3CCC(C3)C12` (stereo not drawn) [Melozone], which “Obs. Lupamin Ratio” value [1] is on record?
The value was 0.28.

With `CC(C)=CCCC(C)CCCC(C)C=O` (stereo not drawn) [Adoxal] as the molecule, how does the “GC-MS head space peak area ratio normalized to Control” value [1] read?
Its value is 0.751.

What about the “Obs. Lupamin Ratio” value [1] of the same molecule?
The value was 0.79.

Which “GC-MS head space peak area ratio normalized to Control” value [1] does the source give for `CC(=O)/C=C/C1=C(C)CCCC1(C)C` [Beta Ionone] here?
The value was 1.222.

Which “GC-MS head space peak area ratio normalized to Control” value [1] does the source give for `CCCC(C)C=O` (stereo not drawn) [2-methyl petanal] here?
Its value is 0.864.

For `O=Cc1ccc2c(c1)OCO2` [Heliotropin], which “Obs. Lupamin Ratio” value [1] is on record?
The value was 1.65.

With `O=Cc1ccccc1` [Benzaldehyde] as the molecule, how does the “GC-MS head space peak area ratio normalized to Control” value [1] read?
The value was 1.030.

For `CC(=O)c1cccs1` [2-acetyl thiophene], which “GC-MS head space peak area ratio normalized to Control” value [1] is on record?
The value was 0.794.

With `CC(C)=CCCC(C)CC=O` (stereo not drawn) [Citronellal] as the molecule, how does the “GC-MS head space peak area ratio normalized to Control” value [1] read?
The value was 2.597.

For `C=C(C)C1CC=C(C)C(=O)C1` (stereo not drawn) [Carvone], which “GC-MS head space peak area ratio normalized to Control” value [1] is on record?
Its value is 1.103.

Which results are given for `CCCCCCCCC=O` [Nonaldehyde]?
GC-MS head space peak area ratio normalized to Control [1]: 0.209; Obs. Lupamin Ratio [1]: 0.21

For `CCCCCCCCCCCC=O` [Lauric Aldehyde], which “GC-MS head space peak area ratio normalized to Control” value [1] is on record?
The value was 0.169.

With “hydroxypropyl modified beta cyclodextrin” as the molecule, how does the “water solubility (benchmark)” value [2] read?
Its value is at least 60 g/100 ml.

Which results are given for `CC(C)CCCC(C)CC=O` (stereo not drawn) [Tetrahydrogeranial]?
GC-MS head space peak area ratio normalized to Control [1]: 0.415; Obs. Lupamin Ratio [1]: 0.42

Which “GC-MS head space peak area ratio normalized to Control” value [1] does the source give for `CC(=O)c1ccc(C(C)=O)cc1` [1,4-diacety lbenzene] here?
The value was 0.913.

For `CC(C)=CCC/C(C)=C\C=O` [Neral], which “GC-MS head space peak area ratio normalized to Control” value [1] is on record?
Its value is 0.261.

Which “GC-MS head space peak area ratio normalized to Control” value ([1]; listed as Kaovone) does the source give for `CC(=O)/C(C)=C(/C)C(C)C(C)(C)C` (stereo not drawn) [Koavone] here?
The value was 1.185 and 1.159 and 1.171.

What about the “Obs. Lupamin Ratio” value [1] of the same molecule?
Its value is 1.17.

For `CC1(C)CCc2ccc(CCC=O)cc21` [Hivernal], which “Obs. Lupamin Ratio” value [1] is on record?
Its value is 0.17.

Which “GC-MS head space peak area ratio normalized to Control” value [1] does the source give for `CCCCCCCCCC(C)C=O` (stereo not drawn) [Methyl Nonyl Acetaldehyde] here?
The value was 0.772.

Which “GC-MS head space peak area ratio normalized to Control” value [1] does the source give for `COc1ccc(C=O)cc1` [p-Anisaldehyde] here?
The value was 1.521.

What about the “Obs. Lupamin Ratio” value [1] of the same molecule?
Its value is 1.52.

For `CCCCCCC(C=O)=Cc1ccccc1` [Hexylcinnamicaldehyde], which “GC-MS head space peak area ratio normalized to Control” value [1] is on record?
The value was 1.480.

For `CC(C)=CCC/C(C)=C/C=O` [Citral], which “Obs. Lupamin Ratio” value [1] is on record?
Its value is 0.23.

With `CCCCCCCCC(C)C=O` (stereo not drawn) [Methyl Octyl acetaldehyde] as the molecule, how does the “GC-MS head space peak area ratio normalized to Control” value [1] read?
Its value is 0.836.

Which “GC-MS head space peak area ratio normalized to Control” value [1] does the source give for `CCCCCCCCCCC=CC=O` [Tridecenal] here?
Its value is 0.470.

For `O=CCCC=C1CC2CC1C1CCCC21` (stereo not drawn) [Dupical], which “GC-MS head space peak area ratio normalized to Control” value [1] is on record?
Its value is 0.932.

Which “GC-MS head space peak area ratio normalized to Control” value [1] does the source give for `CC(C)c1ccc(C=O)cc1` [Cuminaldehyde] here?
Its value is 0.977.

For `CCC/C=C/C=O` [Trans-2-hexenal], which “GC-MS head space peak area ratio normalized to Control” value [1] is on record?
Its value is 0.226.

With `CCCCCC=O` [Hexanal] as the molecule, how does the “GC-MS head space peak area ratio normalized to Control” value [1] read?
The value was 0.222.
